According to patent publication US12077503B2, “Substituted cyclic amides and their use as herbicides” (FMC CORPORATION, priority 2015, dated 2024):

How the values were obtained:
Assay type in all cases: in vivo
[1] = tested on: sedge, umbrella (small-flower umbrella sedge, Cyperus difformis); experiment: Test B flooded paddy test; settings: Cyperus difformis, 250 g ai/ha, Flood; 0 to 100 scale where 0 is no effect and 100 is complete control; read-out: Sedge, Umbrella plant response rating
How it was run: (§1)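 Response scored visually against untreated controls, 0 = no effect and 100 = complete control, 13–15 d after treatment in the greenhouse. Compounds added to paddy water held 3 cm above soil surface. Treatment given at 2-leaf stage.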

[2] = tested on: ducksalad (Heteranthera limosa); experiment: Test B flooded paddy test; settings: Heteranthera limosa, 250 g ai/ha, Flood; 0 to 100 scale where 0 is no effect and 100 is complete control; read-out: Ducksalad plant response rating
How it was run: as §1

[3] = tested on: rice (Oryra sativa); experiment: Test B flooded paddy test; settings: Oryza sativa, 250 g ai/ha, Flood; 0 to 100 scale where 0 is no effect and 100 is complete control; read-out: Rice plant response rating
How it was run: as §1

[4] = tested on: barnyardgrass (Echinochloa crus-galli); experiment: Test B flooded paddy test; settings: Echinochloa crus-galli, 250 g ai/ha, Flood; 0 to 100 scale where 0 is no effect and 100 is complete control; read-out: Barnyardgrass plant response rating
How it was run: as §1

[5] = tested on: pigweed (Amaranthus retroflexus); experiment: Test A preemergence; settings: Amaranthus retroflexus, pre-emergence, 240 h, 0 to 100 scale where 0 is no effect and 100 is complete control, read-out: Pigweed plant response rating; for pest or weed control at 31 g/ha: 31 g ai/ha, Preemergence; for pest or weed control at 125 g/ha: 125 g ai/ha, preemergence, approx. 10 d
[6] = tested on: giant foxtail (Setaria faberii); experiment: Test A preemergence; settings: Setaria faberi, pre-emergence, 240 h, 0 to 100 scale where 0 is no effect and 100 is complete control, read-out: Foxtail, Giant plant response rating; for pest or weed control at 31 g/ha: 31 g ai/ha, Preemergence; for pest or weed control at 125 g/ha: 125 g ai/ha, preemergence, approx. 10 d
How it was run: (§2)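 Ratings of 0 (no effect) to 100 (complete control) come from visual comparison with untreated controls roughly 10 d after treatment. Test chemicals, formulated in a non-phytotoxic solvent mixture with surfactant, were applied either as a preemergence directed soil spray on seeded soil or postemergence to one- to two-leaf plants 2 to 10 cm tall.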

[7] = tested on: ryegrass, Italian (Italian ryegrass, Lolium multiflorum); experiment: Test A preemergence; settings: Lolium multiflorum, pre-emergence, 240 h, 0 to 100 scale where 0 is no effect and 100 is complete control, read-out: Ryegrass, Italian plant response rating; for pest or weed control at 31 g/ha: 31 g ai/ha, Preemergence; for pest or weed control at 125 g/ha: 125 g ai/ha, preemergence, approx. 10 d
How it was run: as §2

[8] = tested on: ragweed (common ragweed, Ambrosia elatior); experiment: Test A preemergence; settings: Ambrosia artemisiifolia, pre-emergence, 240 h, 0 to 100 scale where 0 is no effect and 100 is complete control, read-out: Ragweed plant response rating; for pest or weed control at 31 g/ha: 31 g ai/ha, Preemergence; for pest or weed control at 125 g/ha: 125 g ai/ha, preemergence, approx. 10 d
How it was run: as §2

[9] = tested on: barnyardgrass (Echinochloa crus-galli); experiment: Test A preemergence; settings: Echinochloa crus-galli, pre-emergence, 240 h, 0 to 100 scale where 0 is no effect and 100 is complete control, read-out: Barnyardgrass plant response rating; for pest or weed control at 31 g/ha: 31 g ai/ha, Preemergence; for pest or weed control at 125 g/ha: 125 g ai/ha, preemergence, approx. 10 d
How it was run: as §2

[10] = tested on: Kochia (Kochia scoparia); experiment: Test A preemergence; settings: Bassia scoparia, pre-emergence, 240 h, 0 to 100 scale where 0 is no effect and 100 is complete control, read-out: Kochia plant response rating; for pest or weed control at 31 g/ha: 31 g ai/ha, Preemergence; for pest or weed control at 125 g/ha: 125 g ai/ha, preemergence, approx. 10 d
How it was run: as §2

[11] = tested on: pigweed (Amaranthus retroflexus); experiment: Test A postemergence; settings: Amaranthus retroflexus, post-emergence, 240 h; for pest or weed control at 125 g/ha: 125 g ai/ha, postemergence, visual injury on 0 to 100 scale (0 no effect, 100 complete control), approx. 10 d, read-out: Pigweed plant response rating; for pest or weed control at 31 g/ha: Postemergence, 31 g ai/ha, visual injury after approx. 10 d, 0 to 100 scale, 0 no effect, 100 complete control, read-out: Plant response rating, Pigweed
How it was run: as §2

[12] = tested on: giant foxtail (Setaria faberii); experiment: Test A postemergence; settings: Setaria faberi, post-emergence, 240 h; for pest or weed control at 125 g/ha: 125 g ai/ha, postemergence, visual injury on 0 to 100 scale (0 no effect, 100 complete control), approx. 10 d, read-out: Foxtail, Giant plant response rating; for pest or weed control at 31 g/ha: Postemergence, 31 g ai/ha, visual injury after approx. 10 d, 0 to 100 scale, 0 no effect, 100 complete control, read-out: Plant response rating, Foxtail, Giant
How it was run: as §2

[13] = tested on: wheat (Triticum aestivum); experiment: Test A postemergence; settings: Triticum aestivum, post-emergence, 240 h; for plant injury at 125 g/ha: 125 g ai/ha, postemergence, visual injury on 0 to 100 scale (0 no effect, 100 complete control), approx. 10 d, read-out: Wheat plant response rating; for plant injury at 31 g/ha: Postemergence, 31 g ai/ha, visual injury after approx. 10 d, 0 to 100 scale, 0 no effect, 100 complete control, read-out: Plant response rating, Wheat
How it was run: as §2

[14] = tested on: ryegrass, Italian (Italian ryegrass, Lolium multiflorum); experiment: Test A postemergence; settings: Lolium multiflorum, post-emergence, 240 h; for pest or weed control at 125 g/ha: 125 g ai/ha, postemergence, visual injury on 0 to 100 scale (0 no effect, 100 complete control), approx. 10 d, read-out: Ryegrass, Italian plant response rating; for pest or weed control at 31 g/ha: Postemergence, 31 g ai/ha, visual injury after approx. 10 d, 0 to 100 scale, 0 no effect, 100 complete control, read-out: Plant response rating, Ryegrass, Italian
How it was run: as §2

[15] = tested on: ragweed (common ragweed, Ambrosia elatior); experiment: Test A postemergence; settings: Ambrosia artemisiifolia, post-emergence, 240 h; for pest or weed control at 125 g/ha: 125 g ai/ha, postemergence, visual injury on 0 to 100 scale (0 no effect, 100 complete control), approx. 10 d, read-out: Ragweed plant response rating; for pest or weed control at 31 g/ha: Postemergence, 31 g ai/ha, visual injury after approx. 10 d, 0 to 100 scale, 0 no effect, 100 complete control, read-out: Plant response rating, Ragweed
How it was run: as §2

[16] = tested on: blackgrass (Alopecurus myosuroides); experiment: Test A postemergence; settings: Alopecurus myosuroides, post-emergence, 240 h; for pest or weed control at 125 g/ha: 125 g ai/ha, postemergence, visual injury on 0 to 100 scale (0 no effect, 100 complete control), approx. 10 d, read-out: Blackgrass plant response rating; for pest or weed control at 31 g/ha: Postemergence, 31 g ai/ha, visual injury after approx. 10 d, 0 to 100 scale, 0 no effect, 100 complete control, read-out: Plant response rating, Blackgrass
How it was run: as §2

[17] = tested on: barnyardgrass (Echinochloa crus-galli); experiment: Test A postemergence; settings: Echinochloa crus-galli, post-emergence, 240 h; for pest or weed control at 125 g/ha: 125 g ai/ha, postemergence, visual injury on 0 to 100 scale (0 no effect, 100 complete control), approx. 10 d, read-out: Barnyardgrass plant response rating; for pest or weed control at 31 g/ha: Postemergence, 31 g ai/ha, visual injury after approx. 10 d, 0 to 100 scale, 0 no effect, 100 complete control, read-out: Plant response rating, Barnyardgrass
How it was run: as §2

[18] = tested on: Galium (catchweed bedstraw, Galium aparine); experiment: Test A postemergence; settings: Galium, post-emergence, 240 h; for pest or weed control at 125 g/ha: 125 g ai/ha, postemergence, visual injury on 0 to 100 scale (0 no effect, 100 complete control), approx. 10 d, read-out: Galium plant response rating; for pest or weed control at 31 g/ha: Postemergence, 31 g ai/ha, visual injury after approx. 10 d, 0 to 100 scale, 0 no effect, 100 complete control, read-out: Plant response rating, Galium
How it was run: as §2

[19] = tested on: corn (Zea mays); experiment: Test A postemergence; settings: Zea mays, post-emergence, 240 h; for plant injury at 125 g/ha: 125 g ai/ha, postemergence, visual injury on 0 to 100 scale (0 no effect, 100 complete control), approx. 10 d, read-out: Corn plant response rating; for Corn plant response rating (crop injury, 0 = no effect, 100 = complete kill) at 31 g/ha: Postemergence, 31 g ai/ha, visual injury after approx. 10 d, 0 to 100 scale, 100 complete control
How it was run: as §2

[20] = tested on: Kochia (Kochia scoparia); experiment: Test A postemergence; settings: Bassia scoparia, post-emergence, 240 h; for pest or weed control at 125 g/ha: 125 g ai/ha, postemergence, visual injury on 0 to 100 scale (0 no effect, 100 complete control), approx. 10 d, read-out: Kochia plant response rating; for pest or weed control at 31 g/ha: Postemergence, 31 g ai/ha, visual injury after approx. 10 d, 0 to 100 scale, 0 no effect, 100 complete control, read-out: Plant response rating, Kochia
How it was run: as §2

SMILES	pest or weed control at 250 g/ha [1]	pest or weed control at 250 g/ha [2]	pest or weed control at 250 g/ha [3]	pest or weed control at 250 g/ha [4]	pest or weed control at 31 g/ha [5]	pest or weed control at 125 g/ha [5]	pest or weed control at 31 g/ha [6]	pest or weed control at 125 g/ha [6]	pest or weed control at 31 g/ha [7]	pest or weed control at 125 g/ha [7]	pest or weed control at 31 g/ha [8]	pest or weed control at 125 g/ha [8]	pest or weed control at 31 g/ha [9]	pest or weed control at 125 g/ha [9]	pest or weed control at 31 g/ha [10]	pest or weed control at 125 g/ha [10]	pest or weed control at 125 g/ha [11]	pest or weed control at 31 g/ha [11]	pest or weed control at 125 g/ha [12]	pest or weed control at 31 g/ha [12]	also measured
CN1C[C@H](c2csc3c2CCCC3)[C@@H](C(=O)Nc2ccc(F)c(F)c2F)C1=O [Compound 1079]	0%	30%	20%	60%	0%	0%	20%	100%	0%	0%	0%	0%	0%	80%	0%	0%	0%	0%	20%	0%	plant injury at 125 g/ha [13]: 30%; plant injury at 31 g/ha [13]: 0%; pest or weed control at 125 g/ha [14]: 0%; pest or weed control at 31 g/ha [14]: 0%; pest or weed control at 125 g/ha [15]: 0%; pest or weed control at 31 g/ha [15]: 0%; pest or weed control at 125 g/ha [16]: 0%; pest or weed control at 31 g/ha [16]: 0%; pest or weed control at 125 g/ha [17]: 90%; pest or weed control at 31 g/ha [17]: 20%; pest or weed control at 125 g/ha [18]: 0%; pest or weed control at 31 g/ha [18]: 0%; plant injury at 125 g/ha [19]: 0%; Corn plant response rating (crop injury, 0 = no effect, 100 = complete kill) at 31 g/ha [19]: 0%; pest or weed control at 125 g/ha [20]: 20%; pest or weed control at 31 g/ha [20]: 0%
CN1C[C@H](c2csc3c2CCC3)[C@@H](C(=O)Nc2ccc(F)c(F)c2F)C1=O [Compound 1081]	0%	80%	40%	90%	0%	0%	100%	100%	0%	0%	0%	0%	10%	90%	20%	30%	0%	0%	80%	10%	plant injury at 125 g/ha [13]: 20%; plant injury at 31 g/ha [13]: 0%; pest or weed control at 125 g/ha [14]: 0%; pest or weed control at 31 g/ha [14]: 0%; pest or weed control at 125 g/ha [15]: 0%; pest or weed control at 31 g/ha [15]: 0%; pest or weed control at 125 g/ha [16]: 0%; pest or weed control at 31 g/ha [16]: 0%; pest or weed control at 125 g/ha [17]: 90%; pest or weed control at 31 g/ha [17]: 30%; pest or weed control at 125 g/ha [18]: 20%; pest or weed control at 31 g/ha [18]: 0%; plant injury at 125 g/ha [19]: 20%; Corn plant response rating (crop injury, 0 = no effect, 100 = complete kill) at 31 g/ha [19]: 0%; pest or weed control at 125 g/ha [20]: 0%; pest or weed control at 31 g/ha [20]: 0%
